In patent US20190134039A1, “ANTIVIRAL JAK INHIBITORS USEFUL IN TREATING OR PREVENTING RETROVIRAL AND OTHER VIRAL INFECTIONS” (EMORY UNIVERSITY, priority 2011, published 2019):
“Also recorded” adds a separate entry of the source. Read-outs that look alike come from different tables or passages of the source.

How the values were obtained:
HIV-1LAI = experiment: microbe, parasite or virus in culture; settings: for EC90: read-out: Anti-HIV-1 EC90 in acutely infected PBM cells
From the text: PBM cells were isolated as follows: Lymphocytes were isolated from buffy coats derived from healthy donors obtained from Life South Laboratories (Dunwoody, Ga.). Activated lymphocytes were maintained for 72 hrs in medium that was supplemented with […] phytohemagglutinin (PHA) (Cape Cod associates, East Falmouth, Mass.). Media was comprised of RPMI media supplemented with 20% fetal calf serum, 1% penicillin/streptomyocin and 2% L-glutamine (Sigma Aldrich, San Jose, Calif.).
PBM cell infections: Testing was performed in duplicate with at least 3 independent assays. Cells were incubated in RPMI medium (HyClone, Logan, Utah) containing HR-IL2 (26.5 units/ml) and 20% fetal calf serum. Infections were performed by adding HIV-1LA1 followed by a further incubation at 37° C., 5% CO2, 1 hr prior to addition of drugs. Assays were performed in 24 well plates (BD Biosciences, Franklin Lakes, N.J.). One ml of supernatant was collected after 5 days in culture and then centrifuged at 12,000 rpm for 2 hr at 4° C. in a Jouan Br43i (Thermo Electron Corp., Marietta, Ohio). The product of the RT assay was quantified using a Packard harvester and direct beta counter and the data were analyzed as previously described (Schinazi et al, 1990).

HIV-1BaL = experiment: microbe, parasite or virus in culture; settings: for EC90: read-out: Anti-HIV-1 EC90 in acutely infected MΦ
Method: Macrophages were isolated as follows: Monocytes were isolated from buffy coats of HIV-1 negative, HBV/HCV-negative donors with density gradient centrifugation coupled with enrichment for CD14+ monocytes with Rosette Sep antibody cocktail (Stem Cell Technologies, Vancouver, British Columbia). Cells were seeded at a concentration of 1.0×10^6 cells/well for 1 hr at 37° C. and 5% CO2 to confer plastic adherence prior to repeated washes with 1×PBS. Macrophages were maintained in medium containing 100 U/ml macrophage colony-stimulating factor (m-CSF, R&D Systems, Minneapolis, Minn.), supplemented with 20% fetal calf serum (Atlanta Biologicals, Lawrenceville, Ga.) and 1% penicillin/streptomyocin (Invitrogen, Carlsbad, Calif.) for 7 days (37° C., 5% CO2) prior to testing.
Macrophage infections: Macrophages were cultured as described above for 7 days. […] 4 hrs after infection, virus was removed and drug-containing medium was returned to the cultures. Supernatants were collected on day 7 post-infection and HIV-1 p24 was quantified via ELISA (Zeptometrix Corporation, Buffalo, N.Y.). EC50 analysis was performed using CalcuSyn software (BioSoft Corporation, Cambridge, UK).

PHA + IL-2 PBM cells = experiment: cells; settings: Homo sapiens, PBMC, read-out: IC50 in PHA + IL-2 PBM cells *MTT Assay
PHA stimulated PBM cells = experiment: cells; settings: Homo sapiens, PBMC, read-out: IC50 in PHA stimulated PBM cells *MTT Assay
Mφ = experiment: cells; settings: Homo sapiens, read-out: IC50 in Mφ *MTT Assay
[1] = test system: acute infection in rhesus macaque lymphocytes; experiment: cells; settings: Macaca mulatta, Lymphocyte; for EC90: read-out: Acute infection in rhesus macaque lymphocytes EC90
From the text: (§1) The data (Shown in Table 5 below) are mean and standard deviations from at least three independent experiments.

[2] = test system: acute infection in rhesus macaque macrophages; experiment: cells; settings: for EC90: read-out: Acute infection in rhesus macaque macrophages EC90
From the text: as §1

wild-type HIV-1xxLAI = experiment: Antiviral potency in primary human lymphocytes, wild type; format: cell-based; settings: Human immunodeficiency virus 1, Lymphocyte; xxLAI; primary human lymphocytes; read-out: EC90
HIV-1 containing M184V = experiment: microbe, parasite or virus in culture; format: cell-based; settings: Human immunodeficiency virus 1, Lymphocyte
HIV-1 containing K65R = experiment: microbe, parasite or virus in culture; format: cell-based; settings: Human immunodeficiency virus 1, Lymphocyte
HIV-1 containing L74V = experiment: microbe, parasite or virus in culture; format: cell-based; settings: Human immunodeficiency virus 1, Lymphocyte
[3] = test system: HIV-1 containing A62V/V75I/F77L/F116Y/Q151M; experiment: microbe, parasite or virus in culture; format: cell-based; settings: Human immunodeficiency virus 1, Lymphocyte
[4] = test system: HIV-1 containing 4xAZT (D67N/K70R/T215Y/K219Q); experiment: microbe, parasite or virus in culture; format: cell-based; settings: Human immunodeficiency virus 1, Lymphocyte
PBM cells = experiment: cells; settings: Homo sapiens, PBMC, read-out: IC50 in PBM cells *Propidium Iodide assay
HIV-2 = experiment: microbe, parasite or virus in culture; settings: Human immunodeficiency virus 2, PBMC; for EC90: read-out: Anti-HIV-2 EC90 in acutely infected PBM cells
latent HIV-1 [5] = experiment: Reactivation of latent HIV-1 in primary human macrophages (PMA, p24 ELISA); format: cell-based; settings: drug applied during reactivation, removed thereafter, within 72 hr post reactivation
activated PBM cells = format: cell-based, human
From the text: The data is shown in FIG. 2, in terms of total cell number (10^6 cells) versus aM drug in medium.
The data is shown in FIG. 3, in terms of cell viability (%) versus aM drug in medium.

[6] = test system: various NRTI-resistant HIV-1; experiment: Antiviral potency against various NRTI-resistant HIV-1 in primary human lymphocytes (summary over strains); format: cell-based; settings: K65R, M184V, L74V, A62V/V75I/F77L/F116Y/Q151M, 4xAZT
From the text: FI50 is the ratio of EC50 against mutant virus:EC50 against wild-type xxLAI. FI90 is the ratio of EC90 against mutant virus:EC90 against wild-type xxLAI.

[7] = test system: PHA stimulated primary human lymphocytes; experiment: Proliferation and viability of PHA stimulated primary human lymphocytes; format: cell-based; settings: 5 days, all concentrations
Method: (§2) The effect of various Jak inhibitors on proliferation and viability of PHA or PHA+IL-2 stimulated primary human lymphocytes was evaluated using the techniques described above.
(§3) For all experiments, cells were incubated with media alone or drug-containing medium for 5 days prior to assessment of cell count and viability. Data are mean and standard deviations for at least three independent experiments conducted with at least 4 pooled donors, and duplicates within each experiment.

[8] = test system: PHA+IL-2 stimulated primary human lymphocytes; experiment: Proliferation and viability of PHA+IL-2 stimulated primary human lymphocytes; format: cell-based; settings: PHA+IL-2 stimulated lymphocytes, 5 days
Method: as §2, §3

integrated viral DNA = experiment: Integrated viral DNA in CD4 T cells from viremic donors (Alu PCR); format: cell-based; settings: CD4 T cells from HIV-infected individuals; alone and in the presence of HAART
Method: (§4) FIGS. 11 A-E are graphicals showing that Jak inhibitors reduce frequency of cells harboring integrated viral DNA and IL-15-induced reactivation of latent HIV-1 in CD4 T cells. CD4 T cells were isolated from viremic donors and incubated with CD3/CD28 plus 0.01, 0.1, 1.0 or 10 μM of Jak inhibitors with or without EC99 of ART (180 nM zidovudine, 100 nM efavirenz, 200 nM Raltegravir) (A and B). After six days, integrated viral DNA was quantified using ultra sensitive Alu PCR versus DMSO controls (n=5). 0.01 μM represents the average of all assays completed using % DMSO equivalent to Jak inhibitor concentrations. Error bars represent S.E.M. and statistical significance determined by two-way ANOVA followed by Sidak's multiple comparison post-test: *p<0.05, **p<0.01, ***p<0.001 and ****p<0.0001 for A and B. In panel C-E, memory CD4^+ T cells were isolated from ART treated aviremic donors (n=3), activated with 10 ng/ml IL-15 (panel D) or CD3/CD28 (panel E) and maintained with or without 1 μM ruxolitinib in the presence of ART. Six days post reactivation, extracellular viral RNA copies were quantified by qRT-PCR (*p<0.01, one-way ANOVA).

latent HIV-1 [9] = experiment: Reactivation of latent HIV-1 in memory CD4+ T cells from ART treated aviremic donors; format: cell-based; settings: CD4 T cells from HIV-infected individuals; alone and in the presence of HAART
Method: as §4

pSTAT1 = settings: primary CD4+T lymphocytes
pSTAT3 [10] = settings: primary CD4+T lymphocytes
pSTAT5 = settings: primary CD4+T lymphocytes
pSTAT3 [11] = experiment: cells; settings: read-out: EC90 pSTAT3
[12] = Human immunodeficiency virus 1, PBMC, in Homo sapiens
[13] = Human immunodeficiency virus 1, Macrophage, in Homo sapiens

Cc1cn([C@H]2C[C@H](N=[N+]=[N-])[C@@H](CO)O2)c(=O)[nH]c1=O [AZT, 3′-azido-3′-deoxythymidine]
EC50 (HIV-1LAI; Human immunodeficiency virus 1, PBMC, in Homo sapiens, read-out: Anti-HIV-1 EC50 in acutely infected PBM cells): 20 ± 8 nM | EC90 (HIV-1LAI; [12]): 130 ± 30 nM | EC50 (HIV-1BaL; Human immunodeficiency virus 1, Macrophage, in Homo sapiens, read-out: Anti-HIV-1 EC50 in acutely infected MΦ): 10 ± 20 nM | EC90 (HIV-1BaL; [13]): 70 ± 120 nM | CC50 (PHA + IL-2 PBM cells): > 100000 nM | IC50 (PHA stimulated PBM cells): > 100000 nM | IC50 (Mφ): > 100000 nM | EC50 ([1]; read-out: Acute infection in rhesus macaque lymphocytes EC50): 2 ± 1 nM | EC90 [1]: 30 ± 20 nM | EC50 ([2]; Macaca mulatta, Macrophage, read-out: Acute infection in rhesus macaque macrophages EC50): 80 ± 100 nM | EC90 ([2]; Macaca mulatta, Macrophage): 900 ± 700 nM | EC90 (wild-type HIV-1xxLAI): 100 ± 80 nM | EC50 (HIV-1 containing M184V): 10 ± 20 nM | EC90 (HIV-1 containing M184V): 20 ± 10 nM | EC50 (HIV-1 containing K65R): 40 ± 20 nM | EC90 (HIV-1 containing K65R): 300 ± 100 nM | EC50 (HIV-1 containing L74V): 20 ± 20 nM | EC90 (HIV-1 containing L74V): 200 ± 100 nM | EC50 [3]: 4600 ± 7700 nM | EC90 [3]: 41200 ± 50200 nM | EC50 [4]: 100 ± 100 nM | EC90 [4]: 53300 ± 66100 nM | IC50 (PBM cells): > 50000 nM | EC50 (HIV-2; read-out: Anti-HIV-2 EC50 in acutely infected PBM cells): 1 ± 0.8 nM | EC90 (HIV-2): 10 ± 10 nM

C[C@@H]1CCN(C(=O)CC#N)C[C@@H]1N(C)c1ncnc2[nH]ccc12 [Tofacitinib, 3-{(3R,4R)-4 methyl-3-[methyl-(7H-pyrrolo[2,3-d]pyrimidin-4-yl)-amino]-piperidin-1-yl}-3-oxo-propionitrile]
EC90 (HIV-1LAI; [12]): 17100 ± 15100 nM | inhibition of HIV-1 replication (HIV-1LAI; PBM cells): sub-micromolar | EC90 (HIV-1BaL; [13]): 2900 ± 1400 nM | inhibition of HIV-1 replication (HIV-1BaL; MØ cells): sub-micromolar | EC90 [1]: 2900 ± 500 nM | EC90 ([2]; Macaca mulatta, Macrophage): ~4000 nM | EC90 [2]: 3100 ± 900 nM | EC90 (wild-type HIV-1xxLAI): 28400 ± 16700 nM | EC90 (HIV-1 containing M184V): 27100 ± 15700 nM | EC90 (HIV-1 containing K65R): 81200 ± 26700 nM | EC90 (HIV-1 containing L74V): 47700 ± 45300 nM | EC90 [3]: 8900 ± 8800 nM | EC90 [4]: 17100 ± 4500 nM | percent inhibition of reactivation of latent HIV-1 versus no drug control (latent HIV-1 [5]): ~40% | total cell proliferation (total cell number) (activated PBM cells): do not affect total cell proliferation | total cell viability (activated PBM cells): do not affect total cell viability | FI50 or FI90 versus wild type HIV-1xxLAI [6]: not significant increase; also recorded: did not display a significant difference | antiviral potency for wild-type HIV-1xxLAI versus NRTI-resistant HIV-1 [6]: not significantly different | proliferation versus cells exposed to media alone [7]: not significantly different | viability versus cells exposed to media alone [7]: not significantly different | proliferation versus cells exposed to media alone ([8]; 1.0 μM): significantly inhibited | viability versus cells exposed to media alone ([8]; all concentrations): not significantly different | size of the HIV reservoir (integrated viral DNA): decay the size of the HIV reservoir | reservoir reactivation (latent HIV-1 [9]): block reservoir reactivation | concentrations inhibiting IFN-α induced phosphorylation of STAT1 (pSTAT1): sub-micromolar | concentrations inhibiting IFN-α induced phosphorylation of STAT3 (pSTAT3 [10]): sub-micromolar | concentrations inhibiting IFN-α induced phosphorylation of STAT5 (pSTAT5): sub-micromolar | EC90 (pSTAT3 [11]): 900 nM | EC90 (HIV-2): 1800 ± 1100 nM
